Patent EP0146155A1, “Ether of N-propanolamine derivative” (AKZO N.V., priority 1983, dated 1985)

What was measured:
anti-arrhythmic potency = settings: compared with the racemate and the levo-rotatory isomer
calcium = test: calcium-antagonistic activity (measure for anti-anginal activity); settings: compared with either the racemate or the levo-rotatory isomer
solubility in water = format: physicochemical; settings: compared with the racemate
[1] = QTc prolongation in the ECG (electrocardiogram); format: in vivo
rat = test: arrhythmogenic activity under specific hypokalaemic conditions in the rat; format: in vivo
patients = settings: clinical use; predominantly elderly patients, often hypokalaemic conditions; cited from earlier work

SMILES	anti-arrhythmic potency (anti-arrhythmic potency)	calcium-antagonistic activity (calcium)	solubility in water (solubility in water)	QTc prolongation [1]	arrhythmogenic activity (rat)	rhythm disturbance of the ventricular tachycardia type (patients)
CC(C)COC[C@@H](CN(Cc1ccccc1)c1ccccc1)N1CCCC1 [R-(dextro-rotatory) isomer, R-β-[(2-methylpropoxy)-methyl]-N-phenyl-N-(phenylmethyl)-l-pyrrolidine-ethanamine]	not significantly different	significant increase of calcium-antagonistic activity	much better solubility in water than the racemate	does not produce QTc prolongation	do not possess arrhythmogenic activity	–
CC(C)COCC(CN(Cc1ccccc1)c1ccccc1)N1CCCC1 (racemic) [racemate, bepridil, reference compound]	–	–	–	–	exacerbates arrhythmias	in rare cases been attended by a self limiting rhythm disturbance of the so-called ventricular tachycardia type
